Assay results: ChEMBL document CHEMBL5131386, “Synthesis and biological evaluation of novel schisanhenol derivatives as potential hepatoprotective agents” (Eur J Med Chem, 2022)
Calls of active or inactive are those of the source. The calls are words filed in the database; no cut-off is given here.

Assays:
L02 [1] = experiment: Hepatoprotective activity against concanavalin A induced liver injury in human HL7702 cells assessed as cell survival rate at 5 uM preincubated for 12 hrs followed by concanavalin A stimulation for 12 hrs by MTT assay (reference value: 51.37%); format: functional; conditions: time 24 hrs, read-out: Survival
L02 [2] = experiment: Hepatoprotective activity against concanavalin A induced human HL7702 cell apoptosis assessed as decrease in Bax expression level at 5 uM preincubated for 12 hrs followed by concanavalin A stimulation for 12 hrs by Western blot analysis; format: functional, cell-based; conditions: time 24.0 hrs
L02 [3] = experiment: Hepatoprotective activity against concanavalin A induced livery injury in human HL7702 cells assessed as decrease in JAK2 phosphorylation level at 5 uM preincubated for 12 hrs followed by concanavalin A stimulation for 12 hrs by Western blot analysis; format: functional, cell-based; conditions: time 24.0 hrs
L02 [4] = experiment: Hepatoprotective activity against concanavalin A induced livery injury in human HL7702 cells assessed as increase in HO-1 expression level at 5 uM preincubated for 12 hrs followed by concanavalin A stimulation for 12 hrs by Western blot analysis; format: functional, cell-based; conditions: time 24.0 hrs
L02 [5] = experiment: Hepatoprotective activity against concanavalin A induced livery injury in human HL7702 cells assessed as decrease in STAT3 phosphorylation level at 5 uM preincubated for 12 hrs followed by concanavalin A stimulation for 12 hrs by Western blot analysis; format: functional, cell-based; conditions: time 24.0 hrs
L02 [6] = experiment: Hepatoprotective activity against concanavalin A induced human HL7702 cell apoptosis assessed as decrease in cleaved caspase-3 level at 5 uM preincubated for 12 hrs followed by concanavalin A stimulation for 12 hrs by Western blot analysis; format: functional, cell-based; conditions: time 24.0 hrs
L02 [7] = experiment: Cytotoxicity against human HL7702 cells ssessed as cell survival rate at 5 uM for 12 hrs by MTT assay; format: toxicity, cell-based; conditions: l02, 12 h
L02 [8] = experiment: Hepatoprotective activity against concanavalin A induced human HL7702 cell apoptosis assessed as increase in Bcl-2 expression level at 5 uM preincubated for 12 hrs followed by concanavalin A stimulation for 12 hrs by Western blot analysis; format: functional, cell-based; conditions: time 24.0 hrs
L02 [9] = experiment: Hepatoprotective activity against concanavalin A induced human HL7702 cell apoptosis assessed as nuclear morphological changes at 5 uM preincubated for 12 hrs followed by concanavalin A stimulation for 12 hrs by Hoechst 33342 staining based fluorescence microscopy; format: functional; conditions: time 24.0 hrs

Work on COc1c(Cl)c2c(c(OC)c1OC)-c1c(c(Cl)c(OC)c(OC)c1OC(=O)c1ccc([N+](=O)[O-])cc1)CC(C)C(C)C2 (centres undefined) yielded a viability at 5 µM (L02 [1]) of 59.4%.

In the case of COc1cc2c(c(OC)c1OC)-c1c(O)c(OC)c(OC)c([N+](=O)[O-])c1CC(C)C(C)C2 (centres undefined), the viability at 5 µM (L02 [1]) is reported as 70.2%.

COc1c(Cl)c2c(c(OC)c1OC)-c1c(c(Cl)c(OC)c(OC)c1OC(=O)/C=C/c1ccccc1)CC(C)C(C)C2 (centres undefined) was tested, and the Activity (L02 [2]) was “Active”, the Activity (L02 [3]) was “Active” and the Activity (L02 [4]) was “Active”. The Activity (L02 [5]) was “Active”, the Activity (L02 [6]) was “Active” and the Activity (L02 [7]) was “Non-Toxic”. The Activity (L02 [8]) was “Active”, the viability at 5 µM (L02 [1]) was 89.7% and the Activity (L02 [9]) was “Active”.

For COc1cc2c(c(OC)c1OC)-c1c(c(Cl)c(OC)c(OC)c1OC(=O)c1ccc(C(F)(F)F)cc1)CC(C)C(C)C2 (centres undefined), the viability at 5 µM (L02 [1]) was 61.8%.

COc1cc2c(c(OC)c1OC)-c1c(O)c(OC)c(OC)c(Cl)c1CC(C)C(C)C2 (centres undefined) was tested, and the viability at 5 µM (L02 [1]) was 72.5%.

COc1cc2c(c(OC)c1OC)-c1c(c(Cl)c(OC)c(OC)c1OCCCOC(=O)/C=C/c1ccccc1)CC(C)C(C)C2 (centres undefined) showed a viability at 5 µM (L02 [1]) of 71%.

COc1c(Cl)c2c(c(OC)c1OC)-c1c(c(Cl)c(OC)c(OC)c1OCCCO)CC(C)C(C)C2 (centres undefined) showed a viability at 5 µM (L02 [1]) of 67.1%.

For COc1c(O)c2c(c(Cl)c1OC)CC(C)C(C)Cc1c(Cl)c(OC)c(OC)c(OC)c1-2 (centres undefined), the viability at 5 µM (L02 [1]) was 67.3%.

Compound COc1cc2c(c(OC)c1OC)-c1c(c([N+](=O)[O-])c(OC)c(OC)c1OC(=O)c1cccnc1)CC(C)C(C)C2 (centres undefined) has a viability at 5 µM (L02 [1]) of 49.9%.

COc1ccc(C(=O)Oc2c(OC)c(OC)c(Cl)c3c2-c2c(c(Cl)c(OC)c(OC)c2OC)CC(C)C(C)C3)cc1 (centres undefined) showed a viability at 5 µM (L02 [1]) of 53.6%.

COC1=C(OC)C(OC)CC2=C1c1c(c([N+](=O)[O-])c(OC)c(OC)c1OCCCO)CC(C)C(C)C2 (centres undefined) gave a viability at 5 µM (L02 [1]) of 73.1%.

For COc1c(Cl)c2c(c(OC)c1OC)-c1c(c(Cl)c(OC)c(OC)c1OC(=O)c1ccc(Cl)cc1Cl)CC(C)C(C)C2 (centres undefined), the viability at 5 µM (L02 [1]) was 68%.

In the case of COc1cc2c(c(OC)c1OC)-c1c(c(Cl)c(OC)c(OC)c1OC(=O)c1cccnc1)CC(C)C(C)C2 (centres undefined), the Activity (L02 [2]) is reported as “Active”, the Activity (L02 [3]) is reported as “Active” and the Activity (L02 [4]) is reported as “Active”. The Activity (L02 [5]) was “Active”, the Activity (L02 [6]) was “Active” and the Activity (L02 [7]) was “Non-Toxic”. The Activity (L02 [8]) was “Active”, the viability at 5 µM (L02 [1]) was 93.7% and the Activity (L02 [9]) was “Active”.
